Assays:
Lolium = test: Pre-emergence test, Lolium; format: in vivo; conditions: pre-emergence/greenhouse; 125 g a.i./ha; after three weeks
Procedure: (§1) • Solvent: 5 parts by weight of acetone • Emulsifier: 1 part by weight of alkylaryl polyglycol ether
(§2) To produce a suitable preparation of active compound, 1 part by weight of active compound is mixed with the stated amount of solvent, the stated amount of emulsifier is added and the concentrate is diluted with water to the desired concentration.
(§3) Seeds of the test plants are sown in normal soil. After about 24 hours, the soil is sprayed with the preparation of active compound such that the particular amounts of active compound desired are applied per unit area. The concentration of the spray liquor is chosen such that the particular amounts of active compound desired are applied in 1000 l of water/ha.
(§4) After three weeks, the degree of damage to the plants is rated in % damage in comparison to the development of the untreated control.
(§5) The figures denote: • 0% =no effect (like untreated control) • 100% =total destruction

Sinapis = test: Post-emergence test, Sinapis; format: in vivo; conditions: post-emergence/greenhouse; 250 g a.i./ha; after three weeks
Procedure: as §1, §2
as §3, with “Test plants” for “Seeds”, “a height of 5-15 cm” for “the test plants”, “are” for “are sown in normal soil. After about 24 hours, the soil is”
as §4, §5

Avena fatua [1] = test: Post-emergence test, Avena fatua; format: in vivo; conditions: post-emergence/greenhouse; 250 g a.i./ha; after three weeks
Procedure: as §1, §2
as §3, with “Test plants” for “Seeds”, “a height of 5-15 cm” for “the test plants”, “are” for “are sown in normal soil. After about 24 hours, the soil is”
as §4, §5

Setaria [2] = test: Pre-emergence test, Setaria; format: in vivo; conditions: pre-emergence/greenhouse; 125 g a.i./ha; after three weeks
Procedure: as §1, §2, §3, §4, §5

Stellaria = test: Pre-emergence test, Stellaria; format: in vivo; conditions: pre-emergence/greenhouse; 125 g a.i./ha; after three weeks
Procedure: as §1, §2, §3, §4, §5

Soya bean = test: Pre-emergence test, Soya bean; format: in vivo; conditions: pre-emergence/greenhouse; 125 g a.i./ha; after three weeks; crop
Procedure: as §1, §2, §3, §4, §5

Wheat = test: Pre-emergence test, Wheat; format: in vivo; conditions: pre-emergence/greenhouse; 125 g a.i./ha; after three weeks; crop
Procedure: as §1, §2, §3, §4, §5

Alopecurus [3] = test: Pre-emergence test, Alopecurus; format: in vivo; conditions: pre-emergence/greenhouse; 125 g a.i./ha; after three weeks
Procedure: as §1, §2, §3, §4, §5

[4] = test system: greenhouse red spider mite (Tetranychus urticae); test: Tetranychus test (OP-resistant/dip treatment); format: in vivo; conditions: 100 ppm, dipped bean plants
Procedure: Tetranychus test (OP-Resistant/Dip Treatment)
• Solvent: 30 parts by weight of dimethylformamide • Emulsifier: 1 part by weight of alkylaryl polyglycol ether
To produce a suitable preparation of active compound, 1 part by weight of active compound is mixed with the stated amounts of solvent and emulsifier, and the concentrate is diluted with emulsifier-containing water to the desired concentration.
Bean plants (Phaseolus vulgaris) which are heavily infested by all stages of the greenhouse red spider mite (Tetranychus urticae) are dipped into a preparation of active compound of the desired concentration.
After the desired period of time, the effect in % is determined. 100% means that all spider mites have been killed; 0% means that none of the spider mites have been killed.

Setaria [5] = test: Post-emergence test, Setaria; format: in vivo; conditions: post-emergence/greenhouse; 250 g a.i./ha; after three weeks
Procedure: as §1, §2
as §3, with “Test plants” for “Seeds”, “a height of 5-15 cm” for “the test plants”, “are” for “are sown in normal soil. After about 24 hours, the soil is”
as §4, §5

Meloidogyne incognita = test: Meloidogyne test; format: in vivo; conditions: 20 ppm active compound, nematicidal action by gall formation on lettuce roots
Procedure: Meloidogyne Test • Solvent: 30 parts by weight of dimethylformamide • Emulsifier: 1 part by weight of alkylaryl polyglycol ether To produce a suitable preparation of active compound, 1 part by weight of active compound is mixed with the stated amounts of solvent and emulsifier, and the concentrate is diluted with water to the desired concentration. Containers are filled with sand, solution of active compound, Meloidogyne incognita egg/larvae suspension and lettuce seeds. The lettuce seeds germinate the plants develop. On the roots, galls are formed. After the desired period of time, the nematicidal action is determined in % by the gall formation. 100% means that no galls have been found; 0% means that the number of galls on the treated plants corresponds to that of the untreated control.

Alopecurus [6] = test: Post-emergence test, Alopecurus; format: in vivo; conditions: post-emergence/greenhouse; 250 g a.i./ha; after three weeks
Procedure: as §1, §2
as §3, with “Test plants” for “Seeds”, “a height of 5-15 cm” for “the test plants”, “are” for “are sown in normal soil. After about 24 hours, the soil is”
as §4, §5

Abutilon = test: Pre-emergence test, Abutilon; format: in vivo; conditions: pre-emergence/greenhouse; 125 g a.i./ha; after three weeks
Procedure: as §1, §2, §3, §4, §5

Bromus = test: Pre-emergence test, Bromus; format: in vivo; conditions: pre-emergence/greenhouse; 125 g a.i./ha; after three weeks
Procedure: as §1, §2, §3, §4, §5

Sugar-beet = test: Post-emergence test, Sugar beet; format: in vivo; conditions: post-emergence/greenhouse; 250 g a.i./ha; after three weeks; crop
Procedure: as §1, §2
as §3, with “Test plants” for “Seeds”, “a height of 5-15 cm” for “the test plants”, “are” for “are sown in normal soil. After about 24 hours, the soil is”
as §4, §5

[7] = test system: caterpillars of the armyworm (Spodoptera frugiperda); test: Spodoptera frugiperda test; format: in vivo; conditions: 500 ppm, dipped cabbage leaves
Procedure: (§6) Spodoptera Frugiperda Test • Solvent: 7 parts by weight of dimethylformamide • Emulsifier: 2 parts by weight of alkylaryl polyglycol ether To produce a suitable preparation of active compound, 1 part by weight of active compound is mixed with the stated amounts of solvent and emulsifier, and the concentrate is diluted with emulsifier-containing water to the desired concentration. Cabbage leaves (Brassica oleracea) are treated by being dipped into the preparation of active compound of the desired concentration and are populated with caterpillars of the armyworm (Spodoptera frugiperda) while the leaves are still moist. After the desired period of time, the kill in % is determined. 100% means that all caterpillar larvae have been killed; 0% means that none of the caterpillar have been killed.

Echinochloa = test: Post-emergence test, Echinochloa; format: in vivo; conditions: post-emergence/greenhouse; 250 g a.i./ha; after three weeks
Procedure: as §1, §2
as §3, with “Test plants” for “Seeds”, “a height of 5-15 cm” for “the test plants”, “are” for “are sown in normal soil. After about 24 hours, the soil is”
as §4, §5

Ustilago avenae = test: In vitro test for the ED50 determination in microorganisms, Ustilago avenae; format: cell-based; conditions: 50% inhibition of fungal growth, tested at 0.1, 1, 10 and 100 ppm, 22° C., 3-5 days, photometric 620 nm
Pyricularia oryzae = format: cell-based; conditions: 50% inhibition of fungal growth, tested at 0.1, 1, 10 and 100 ppm, 22° C., 3-5 days, photometric 620 nm
Septoria tritici = test: In vitro test for the ED50 determination in microorganisms, Septoria tritici; format: cell-based; conditions: 50% inhibition of fungal growth, tested at 0.1, 1, 10 and 100 ppm, 22° C., 3-5 days, photometric 620 nm
[8] = test system: green peach aphid (Myzus persicae); test: Myzus test (systemic action); format: in vivo; conditions: 20 ppm, watering of infested Savoy cabbage (systemic)
Procedure: Myzus Test (Systemic Action) • Solvent: 7 parts by weight of dimethylformamide • Emulsifier: 2 parts by weight of alkylaryl polyglycol ether To produce a suitable preparation of active compound, 1 part by weight of active compound is mixed with the stated amounts of solvent and emulsifier, and the concentrate is diluted with emulsifier-containing water to the desired concentration. Savoy cabbage (Brassica oleracea) which is heavily infested by the green peach aphid (Myzus persicae) is watered with in each case 10 ml of preparation of active compound of the desired concentration such that the preparation of active compound penetrates into the soil without wetting the seedling. The active compound is taken up by the roots and transferred into the seedling. After the desired period of time, the kill in % is determined. 100% means that all aphids have been killed; 0% means that none of the aphids have been killed.

Digitaria = test: Pre-emergence test, Digitaria; format: in vivo; conditions: pre-emergence/greenhouse; 125 g a.i./ha; after three weeks
Procedure: as §1, §2, §3, §4, §5

Oilseed rape = test: Pre-emergence test, Oilseed rape; format: in vivo; conditions: pre-emergence/greenhouse; 125 g a.i./ha; after three weeks; crop
Procedure: as §1, §2, §3, §4, §5

[9] = test system: larvae of the mustard beetle (Phaedon cochleariae); test: Phaedon larvae test; format: in vivo; conditions: 500 ppm, dipped cabbage leaves
Procedure: as §6, with “Phaedon Larvae Test” for “Spodoptera Frugiperda Test”, “with larvae” for “with caterpillars”, “the mustard beetle (Phaedon cochleariae)” for “the armyworm (Spodoptera frugiperda)”, “all beetle” for “all caterpillar”, “the beetle larvae” for “the caterpillar”

Avena fatua [10] = test: Pre-emergence test, Avena fatua; format: in vivo; conditions: pre-emergence/greenhouse; 125 g a.i./ha; after three weeks
Procedure: as §1, §2, §3, §4, §5

Polygonum = test: Pre-emergence test, Polygonum; format: in vivo; conditions: pre-emergence/greenhouse; 125 g a.i./ha; after three weeks
Procedure: as §1, §2, §3, §4, §5

Sugar beet = test: Pre-emergence test, Sugar beet; format: in vivo; conditions: pre-emergence/greenhouse; 125 g a.i./ha; after three weeks; crop
Procedure: as §1, §2, §3, §4, §5

Galium = test: Post-emergence test, Galium; format: in vivo; conditions: post-emergence/greenhouse; 250 g a.i./ha; after three weeks
Procedure: as §1, §2
as §3, with “Test plants” for “Seeds”, “a height of 5-15 cm” for “the test plants”, “are” for “are sown in normal soil. After about 24 hours, the soil is”
as §4, §5

Matricaria = test: Pre-emergence test, Matricaria; format: in vivo; conditions: pre-emergence/greenhouse; 125 g a.i./ha; after three weeks
Procedure: as §1, §2, §3, §4, §5

SMILES	% damage, Lolium (Lolium) [%]	% damage, Sinapis (Sinapis) [%]	% damage, Avena fatua (Avena fatua [1]) [%]	% damage, Setaria (Setaria [2]) [%]	% damage, Stellaria (Stellaria) [%]	% damage, Soya bean (Soya bean) [%]	% damage, Alopecurus (Alopecurus [3]) [%]	Kill rate in % after 7 d [4] [%]	% damage, Setaria (Setaria [5]) [%]	% damage, Alopecurus (Alopecurus [6]) [%]	Kill rate in % after 7 d [7] [%]	other results
CCOC(=O)OC1=C(c2nc(-c3ccc(Cl)cc3)sc2CC)C(=O)CC12CCCCC2 [Example I-1-c-3]	100	80	100	100	70	0	95	98	100	100	–	% damage, Wheat (Wheat): 10%; Kill rate in % after 14 d (Meloidogyne incognita): 100%
Cc1sc(-c2ccc(Cl)cc2)nc1C1=C(O)CC(C)(C)CC1=O [Example I-2-a-1]	100	–	95	100	–	0	–	98	100	90	100	% damage, Abutilon (Abutilon): 70%; % damage, Bromus (Bromus): 95%; % damage, Sugar-beet (Sugar-beet): 0%; % damage, Echinochloa (Echinochloa): 100%
Cc1sc(-c2ccc(Cl)cc2)nc1C1=C(O)CCCC1=O [Example I-2-a-2]	–	–	–	–	–	–	–	99	–	–	–	ED50 value (Ustilago avenae): <0.1 ppm; ED50 value (Pyricularia oryzae): 1.96 ppm; ED50 value (Septoria tritici): <0.1 ppm
CCOC(=O)OC1=C(c2nc(-c3ccc(Cl)cc3)sc2C)C(=O)CC12CCCCC2 [Example I-1-c-2]	100	–	–	–	100	–	95	–	–	–	–	Kill rate in % after 10 d [8]: 95%; % damage, Digitaria (Digitaria): 100%; % damage, Oilseed rape (Oilseed rape): 0%
CCOC(=O)OC1=C(c2nc(-c3ccc(Cl)cc3)sc2C)C(=O)CC1(C)C [Example I-1-c-1]	–	70	90	–	–	–	–	95	100	–	100	Kill rate in % after 7 d [9]: 100%; % damage, Sugar-beet (Sugar-beet): 0%; % damage, Echinochloa (Echinochloa): 100%
CCc1sc(-c2ccc(Cl)cc2)nc1C1=C(O)C2(CCCCC2)CC1=O [Example I-1-a-3]	–	80	100	–	–	–	95	–	100	90	–	% damage, Avena fatua (Avena fatua [10]): 100%; % damage, Digitaria (Digitaria): 100%; % damage, Polygonum (Polygonum): 100%; % damage, Sugar beet (Sugar beet): 0%
CCOC(=O)OC1=C(c2nc(-c3ccc(Cl)cc3)sc2C)C(=O)CC(C)(C)C1 [Example I-2-c-1]	–	–	100	–	–	–	–	100	100	90	100	Kill rate in % after 7 d [9]: 100%; % damage, Galium (Galium): 80%
Cc1sc(-c2ccc(Cl)cc2)nc1C1=C(O)C(C)(C)CCC1=O [Example I-2-a-3]	–	–	–	–	–	–	–	–	–	–	–	ED50 value (Ustilago avenae): 0.1 ppm; ED50 value (Pyricularia oryzae): <0.1 ppm; ED50 value (Septoria tritici): <0.1 ppm
Cc1sc(-c2ccc(Cl)cc2)nc1C1=C(O)C(C)(C)CC1=O [Example I-1-a-1]	100	70	100	100	100	0	–	100	100	100	–	% damage, Matricaria (Matricaria): 100%; Kill rate in % after 14 d (Meloidogyne incognita): 95%
